Experiments:
C2C12 myotubes = assay: Fatty acid oxidation / mitochondrial respiration analysis on C2C12 myotubes (Seahorse XF96); assay type: cell-based, Mouse; settings: UA 50 uM, Astaxanthin 20 uM; for induced mitochondrial respiration / Relative Change (%) Compared to DMSO 0.1%: C2C12 myotubes; for induced mitochondrial respiration: 24 hours treatment, vs DMSO; for % increase in maximal mitochondrial respiration: Table 3: change in maximal mitochondrial respiration vs DMSO, 24 hours; for Relative Change (%) Compared to DMSO 0.1%: Table 4
Protocol: Fatty acid oxidation analysis on C2C12 myotubes was measured with a Seahorse XF96 extracellular flux analyzer. […] were seeded at 8,000 cells/well in an XF96 cell culture microplate. Once cells reached confluence, they were differentiated with DMEM (Gibco, 31966047) supplemented with 2% Horse serum, 1% PenStrep and 1% Hepes for 5 days. Cells were treated with UA 50 uM (Amazentis) and Astaxanthin 20 uM (MedChemExpress, LKT-A7476) for 24 hours in substrate-limited media (Gibco, A1443001) supplemented with 0.5 mM glucose, 1 mM glutamine, 1% Oleic acid and 0.5 mM L-Carnitine. Maximal respiration was monitored by injection of 3 µM FCCP in the cartridge. Prior to the assay, cells were incubated in a Fatty acid oxidation medium (111 mM NaCl, 4.7 mM KCl, 1.25 mM CaCI2, 2 mM MgSO4, 1.2 mM NaH2PO4, 5 mM L-Carnitine, 5 mM Hepes, 2.5 mM Glucose) for 20 min, solution must be adjusted to pH 7.4 at 37° C. Mouse muscle C2C12 myotubes were treated for 24 hours with either Urolithin A alone, Astaxanthin alone or a combination of both compounds. Urolithin A alone induced mitochondrial respiration (+8.5%, Table 4). Astaxanthin alone induced mitochondrial respiration (+3.2% Table.4).

interleukin 6 (IL-6) = assay: Cytokine mix (CTX)-induced IL-6 release in normal human dermal fibroblasts (ELISA); assay type: cell-based; settings: Zinc 100 uM; for Relative Change (%) Compared to CTX: Table 5, IL-6, nHDF; for Relative Change (%) Compared to CTX / reduction of CTX-mediated increase of IL-6: CTX 0.025 ng/ml; for Relative Change (%) Compared to CTX / % reduction IL-6: UA 2.5 uM; for % reduction IL-6: Table 6, IL-6 concentration in cell supernatant, CTX vs CTX + treatment; for reduction of CTX-mediated increase of IL-6: nHDF, urolithin A 2.5 uM, 24 h pre-treatment + 24 h co-treatment
Protocol: The protective effects of urolithin A and Zinc against inflammation induced by a cytokines mix (Cytomix, CTX) in human dermal fibroblasts (nHDF cells) were investigated. A dose of 0.025 ng/ml of Cytokines mix was applied to induce inflammation, measured by quantifying the levels of the pro-inflammatory cytokine interleukin 6 (IL-6) in the cell culture supernatant. For the experiment, cells were first pre-treated with either i) urolithin A 2.5 uM, ii) Zinc at 100 uM, iii) a combination of urolithin A 2.5 uM and Zinc 100 uM, iv) or DMSO as control for 24 h. Then cells were co-treated with both CTX and either urolithin A or Zinc alone or in combination, as above. After 24h, IL-6 was measured in the cell supernatant to assess the ability of Urolithin A and Zinc to reduce Cytokines-induced inflammation.
Normal Human dermal fibroblasts (nHDF) purchased from Promocell (ref. C-12302) were seeded at 6000 cells per well in a 96 well plate (Greiner) using a DMEM Glutamax 1 g D-glucose (Gibco, ref 21885108) supplemented with FBS 10% (PanBiotech, ref P30-3033), 1% PenStrep (Biowest) and 1% Hepes (Biowest). All media were sterilized with a 0.45 μm filter unit (VWR). The day after the seeded cells were treated for 24 h with 1) Urolithin A (UA) resuspended in DMSO, Zinc gluconate (MedChemExpress Ref. HY-W145499) or a combination of the two at the indicated doses. Cytokine mix (“cytomix”) was added in addition of the previous treatment for another 24h, cytokines were used equally for a total and final concentration of 0.025 ng/ml (mIFN-g (roche ref.11276905001), TNF-α (Peprotech ref. 300-01A) and IL-b (Proteintech ref. 200-01B)). The medium was collected and an ELISA for Interleukin-6 were performed following the instruction provided by the supplier (Proteintech ref. KE10007). Finally, the absorbance at a wavelength of 450 nm was measured using a microplate plate reader (Fluostar Optima, BMG Labtech). IL-6 data were finally normalized over cell number, calculated with a cell viability assay (Promega, ref. G7571).

| Compound | induced mitochondrial respiration (C2C12 myotubes) | % increase in maximal mitochondrial respiration (C2C12 myotubes) | Relative Change (%) Compared to DMSO 0.1% (C2C12 myotubes) | Relative Change (%) Compared to CTX (interleukin 6 (IL-6)) | % reduction IL-6 (interleukin 6 (IL-6)) | reduction of CTX-mediated increase of IL-6 (interleukin 6 (IL-6)) |
| --- | --- | --- | --- | --- | --- | --- |
| CC1=C(/C=C/C(C)=C/C=C/C(C)=C/C=C/C=C(C)/C=C/C=C(C)/C=C/C2=C(C)C(=O)[C@@H](O)CC2(C)C)C(C)(C)C[C@H](O)C1=O [Astaxanthin] | +3.2% | +3.3% | 2.6% |  |  |  |
| O=c1oc2cc(O)ccc2c2ccc(O)cc12 [Urolithin A] | +8.5% | +8.5% | 8.4% | −25.05% | 25% | 25% |
| Zinc gluconate |  |  |  | −29.57% | −29.6% | 29.6% |

From patent publication US20250367099A1, “UROLITHIN COMBINATIONS” (priority 2024, published 2025)
